According to PubChem BioAssay (NCI):
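Method: 48-hour compound exposure of cells in 96-well plates, five concentrations, linear interpolation of endpoints. GI50 is the concentration that inhibits growth by half. The concentration for full growth arrest is given as TGI.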

Key:
Assay in all cases: NCI-60 cell line screen, 48 h
[1] = test system: UO-31 renal
[2] = test system: HCT-15 colon
[3] = test system: DU-145 prostate
[4] = test system: MOLT-4 leukemia
[5] = test system: SNB-19 CNS
[6] = test system: CCRF-CEM leukemia
[7] = test system: SK-MEL-5 melanoma
[8] = test system: RPMI-8226 leukemia
[9] = test system: IGROV1 ovarian
[10] = test system: SF-295 CNS
[11] = test system: LOX IMVI melanoma
[12] = test system: OVCAR-4 ovarian
[13] = test system: HS 578T breast
[14] = test system: SK-MEL-28 melanoma
[15] = test system: NCI-H460 lung
[16] = test system: SW-620 colon
[17] = test system: EKVX NSCLC
[18] = test system: SK-MEL-2 melanoma
[19] = test system: MCF7 breast
[20] = test system: HT29 colon
[21] = test system: K-562 leukemia
[22] = test system: NCI-H226 lung
[23] = test system: HOP-92 NSCLC
[24] = test system: T-47D breast
[25] = test system: MDA-MB-435
[26] = test system: CAKI-1 renal
[27] = test system: 786-0 renal
[28] = test system: HCC-2998 colon
[29] = test system: SNB-75 CNS
[30] = test system: SN12C renal
[31] = test system: ACHN renal
[32] = test system: A549 NSCLC
[33] = test system: NCI/ADR-RES ovarian
[34] = test system: HOP-62 NSCLC
[35] = test system: UACC-62 melanoma
[36] = test system: KM12 colon
[37] = test system: TK-10 renal
[38] = test system: SF-268 CNS
[39] = test system: SF-539 CNS
[40] = test system: NCI-H522 lung
[41] = test system: M14 melanoma
[42] = test system: NCI-H23 lung
[43] = test system: MALME-3M melanoma
[44] = test system: MDA-N
[45] = test system: SK-OV-3 ovarian
[46] = test system: HL-60(TB) leukemia
[47] = test system: BT-549 breast
[48] = test system: SR leukemia
[49] = test system: OVCAR-8 ovarian
[50] = test system: RXF 393 renal
[51] = test system: UACC-257 melanoma
[52] = test system: HCT-116 colon
[53] = test system: PC-3 prostate
[54] = test system: A498 renal
[55] = test system: OVCAR-5 ovarian
[56] = test system: U251 CNS
[57] = test system: COLO 205 colon
[58] = test system: OVCAR-3 ovarian
[59] = test system: MDA-MB-231 breast
[60] = test system: XF 498 CNS
[61] = test system: DMS 114 small cell lung
[62] = test system: DMS 273 small cell lung
[63] = test system: LXFL 529 NSCLC
[64] = test system: DLD-1 colon
[65] = test system: KM20L2 colon
[66] = test system: HOP-18 NSCLC
[67] = test system: SNB-78 CNS
[68] = test system: M19-MEL melanoma

O=C1CCC(N2C(=O)c3ccccc3C2=O)C(=O)N1 (configuration not stated)
TGI [1]: > 100 µM | TGI [2]: > 100 µM | TGI [3]: > 100 µM | TGI [4]: > 100 µM | TGI [5]: > 100 µM | TGI [6]: > 100 µM | TGI [7]: > 100 µM | TGI [8]: > 100 µM | TGI [9]: > 100 µM | TGI [10]: > 100 µM | GI50 [11]: > 100 µM | TGI [11]: > 100 µM | TGI [12]: > 100 µM | TGI [13]: > 100 µM | GI50 [14]: > 100 µM | TGI [14]: > 100 µM | TGI [15]: > 100 µM | TGI [16]: > 100 µM | TGI [17]: > 100 µM | TGI [18]: > 100 µM | TGI [19]: > 100 µM | GI50 [20]: > 100 µM | TGI [20]: > 100 µM | TGI [21]: > 100 µM | GI50 [22]: > 100 µM | TGI [22]: > 100 µM | TGI [23]: > 100 µM | TGI [24]: > 100 µM | TGI [25]: > 100 µM | TGI [26]: > 100 µM | TGI [27]: > 100 µM | TGI [28]: > 100 µM | TGI [29]: > 100 µM | TGI [30]: > 100 µM | TGI [31]: > 100 µM | TGI [32]: > 100 µM | TGI [33]: > 100 µM | TGI [34]: > 100 µM | TGI [35]: > 100 µM | TGI [36]: > 100 µM | GI50 [37]: > 100 µM | TGI [37]: > 100 µM | TGI [38]: > 100 µM | GI50 [39]: > 100 µM | TGI [39]: > 100 µM | TGI [40]: > 100 µM | TGI [41]: > 100 µM | TGI [42]: > 100 µM | TGI [43]: > 100 µM | TGI [44]: > 100 µM | TGI [45]: > 100 µM | GI50 [46]: > 100 µM | TGI [46]: > 100 µM | TGI [47]: > 100 µM | TGI [48]: > 100 µM | TGI [49]: > 100 µM | TGI [50]: > 100 µM | TGI [51]: > 100 µM | TGI [52]: > 100 µM | TGI [53]: > 100 µM | GI50 [54]: > 100 µM | TGI [54]: > 100 µM | TGI [55]: > 100 µM | TGI [56]: > 100 µM | TGI [57]: > 100 µM | GI50 [58]: > 100 µM | TGI [58]: > 100 µM | GI50 [59]: > 100 µM | TGI [59]: > 100 µM

COc1ccc(C(=O)C(CC2C(=O)NC(=O)NC2=O)c2ccc(OC)cc2)cc1 (configuration not stated)
TGI [1]: > 100 µM | TGI [2]: > 100 µM | TGI [4]: > 100 µM | TGI [60]: > 100 µM | TGI [5]: > 100 µM | TGI [6]: > 100 µM | TGI [7]: > 100 µM | TGI [9]: > 100 µM | TGI [10]: > 100 µM | TGI [11]: > 100 µM | TGI [12]: > 100 µM | TGI [14]: > 100 µM | TGI [15]: > 100 µM | TGI [16]: > 100 µM | TGI [61]: > 100 µM | TGI [17]: > 100 µM | TGI [18]: > 100 µM | TGI [20]: > 100 µM | TGI [21]: > 100 µM | TGI [22]: > 100 µM | TGI [62]: > 100 µM | TGI [26]: > 100 µM | TGI [27]: > 100 µM | TGI [28]: > 100 µM | TGI [29]: > 100 µM | TGI [30]: > 100 µM | TGI [31]: > 100 µM | TGI [32]: > 100 µM | TGI [34]: > 100 µM | TGI [63]: > 100 µM | TGI [35]: > 100 µM | TGI [36]: > 100 µM | TGI [64]: > 100 µM | TGI [37]: > 100 µM | TGI [38]: > 100 µM | TGI [39]: > 100 µM | TGI [40]: > 100 µM | TGI [41]: > 100 µM | TGI [42]: > 100 µM | TGI [65]: > 100 µM | TGI [43]: > 100 µM | TGI [45]: > 100 µM | TGI [66]: > 100 µM | TGI [46]: > 100 µM | TGI [48]: > 100 µM | TGI [49]: > 100 µM | TGI [50]: > 100 µM | TGI [67]: > 100 µM | TGI [51]: > 100 µM | TGI [52]: > 100 µM | TGI [54]: > 100 µM | TGI [55]: > 100 µM | TGI [56]: > 100 µM | TGI [57]: > 100 µM | TGI [58]: > 100 µM | TGI [68]: > 100 µM

CN1CCc2c1nc(-c1ccc(Cl)cc1)c1c2N(C)CC1
TGI [1]: 32.5 µM | TGI [2]: > 100 µM | TGI [4]: 31.4 µM | TGI [60]: 32.6 µM | TGI [5]: > 100 µM | TGI [6]: 55.2 µM | TGI [7]: 26.6 µM | TGI [8]: 37.1 µM | TGI [9]: > 100 µM | TGI [10]: 31.1 µM | TGI [11]: 22.5 µM | TGI [12]: > 100 µM | TGI [15]: 40.4 µM | TGI [16]: > 100 µM | TGI [61]: 34.3 µM | TGI [17]: > 100 µM | TGI [18]: > 100 µM | TGI [20]: 45.4 µM | TGI [21]: 62.1 µM | TGI [62]: 32 µM | TGI [26]: 29.9 µM | TGI [27]: > 100 µM | TGI [28]: 65 µM | TGI [29]: 67.7 µM | TGI [30]: 71.1 µM | TGI [31]: 55.6 µM | TGI [32]: > 100 µM | TGI [34]: 27.7 µM | TGI [63]: 77 µM | TGI [35]: 25.7 µM | TGI [36]: 45.7 µM | TGI [64]: 82.4 µM | TGI [37]: 92.6 µM | TGI [38]: > 100 µM | TGI [39]: 32.9 µM | TGI [41]: 20.4 µM | TGI [42]: 49.9 µM | TGI [65]: 72.3 µM | TGI [43]: > 100 µM | TGI [45]: 59.8 µM | TGI [46]: 47.4 µM | TGI [49]: > 100 µM | TGI [50]: 43.9 µM | TGI [67]: > 100 µM | TGI [51]: 32.7 µM | TGI [52]: 18.9 µM | TGI [54]: 62.6 µM | TGI [55]: 73.3 µM | TGI [56]: 22.5 µM | TGI [57]: 21.1 µM | TGI [58]: 22.8 µM | TGI [68]: > 100 µM
